Assay [1] has as its target T1, Islet amyloid polypeptide (Homo sapiens, UniProt P10997).
T1 sequence (P10997 whole entry): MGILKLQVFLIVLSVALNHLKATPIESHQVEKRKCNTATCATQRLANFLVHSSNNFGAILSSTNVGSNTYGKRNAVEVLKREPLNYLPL
As to the kind of experiment: Inhibition of islet amyloid polypeptide (unknown origin) aggregation after 24 hrs by thioflavin T based fluorescence assay.

Assay [2] has as its system BRIN-BD11. As to the kind of experiment: Protective activity against IAPP-induced toxicity in rat […] cells assessed as cell viability at 0.02 to 0.63 uM after 72 hrs by MTT assay. The conditions noted are these: dose 0.02-0.63 µM. Type of assay: functional, cell-based. A general note: Tetrazolium dyes change colour on reduction, which living cells bring about.
The nature of assay [3]: Protective activity against IAPP-induced toxicity in rat BRIN-B11 cells assessed as cell viability after 72 hrs by MTT assay. The following applies: BRIN-BD11, 72 h.
The test system of assay [4] is BRIN-BD11. As to the kind of experiment: Protective activity against IAPP-induced toxicity in rat […] cells assessed as cell viability at 10 uM after 72 hrs by MTT assay. Type of assay: functional, cell-based.

The text below walks through data of ChEMBL document CHEMBL4834398, “Synthesis of Yakuchinone B-Inspired Inhibitors against Islet Amyloid Polypeptide Aggregation” (J Nat Prod, 2021).

Activity calls are given as the source filed them. The rule behind the calls is not given here.

Consider `CC(=O)CCc1ccc(O)c(O)c1`, for which the IC50 – broadly, the point on the concentration scale where inhibition reaches its midpoint – in assay [1] is above 10000 nM.
Regarding `CCCC(=O)/C=C/c1cccc(O)c1O`, the outcome in the assay with BRIN-BD11 [2] was Active. The EC50 – broadly, the concentration at which the effect is half-maximal – in assay [3] is 100 nM.
`CC(=O)/C=C/c1ccc(O)c(O)c1` came in with a half-maximal inhibitory concentration (IC50) in assay [1] of 3700 nM.
`O=c1c(O)c(-c2ccc(O)cc2O)oc2cc(O)cc(O)c12` [MORIN] registered a half-maximal inhibitory concentration (IC50) in assay [1] of 7800 nM. Moreover, in assay [3], the EC50 amounted to 1000 nM.
For the molecule `CC(=O)/C=C/c1cccc(O)c1O`, the outcome in the assay on BRIN-BD11 [4] was inactive.
With `CCCCC(=O)/C=C/c1cccc(O)c1O`, the result with BRIN-BD11 [2] was Active. In addition, the EC50 in assay [3] was found to be 200 nM.
In the case of `CCC(=O)/C=C/c1cccc(O)c1O`, in the assay on BRIN-BD11 [4], the outcome was inactive.
